Assay [1] deals with differentiated HL-60 cells. Kind of assay: migration activity (Chemotaxis Index) of differentiated HL-60 cells. Type of assay: cell-based, human. As to the method: (3) Measurement of Migration Activity
The cells were collected by centrifuging the suspension of the differentiated HL-60 cells (1,000 rpm, 5 minutes, 4° C.). After that, the following operation was repeated three times to wash the cells: 10% FBS-RPMI1640 was added to the cells; the mixture was suspended by inversion; and the mixture was centrifuged again (1,000 rpm, 5 minutes, 4° C.). Then, a medium (10% FBS-RPMI1640) was added so that a cell density was 4×10^6 cells/ml, thereby a cell suspension was prepared. Subsequently, 1 ml of each peptide solution (dissolved in 10% FBS-RPMI 1640) was transferred to each well of a 24-well plate, and the plate was incubated at 37° C. for 20 minutes. After that, 500 μl of the cell suspension (2×10^6 cells) were put in Chemotaxicell (KURABO […] LTD., 3 μm) and the Chemotaxicell was set in a plate, followed by incubation in the presence of 5% CO2 at 37° C. for 1 hour. Then, the Chemotaxicell was removed and the solution in each well of the plate was pipetted. The cells migrated to the plate side was suspended well and the number of the cells were measured. Note that the migration activity by the peptide was represented by a ratio of the number of the cells to the number of the cells passing the Chemotaxicell at the time of non-stimulation (Chemotaxis Index, CI).

The test system of assay [2] is HL-60 cells differentiated into the neutrophil-like cells. Kind of assay: β-hexosaminidase-secreting activity of neutrophil-like differentiated HL-60 cells. The assay is classed as cell-based, human. Particulars: differentiated HL-60 cells; read-out: EC50, β-hexosaminidase-secreting activity. The procedure, abridged:
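HL-60 cells were differentiated with 500 μM db-cAMP for 3 days at 37 °C, then stimulated with peptide for 10 min in HBHS/0.1% BSA, pH 7.4, containing 5 μg/ml cytochalasin B and DNase I. Released β-hexosaminidase was read at 405 nm after p-nitrophenyl-N-acetylglucosaminide hydrolysis (pH 4.5, 37 °C, 1 h). Secretion is expressed relative to 10 μM fMLP, with total enzyme from 0.05% Triton X-100 lysis.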

The target of a further assay is T1, bovine Gi1-G protein (Bos taurus, UniProt P63097).
T1 construct: made in house; host or cells: E. coli
The assay is described as follows: G protein activation ability (GTP hydrolysis) with purified Gi1. Type of assay: biochemical.

Assay [3] relates to G protein in the differentiated HL-60 cell membrane fraction. Kind of assay: G protein activation ability (GTP hydrolysis) in cell membrane fraction. Type of assay: biochemical, human. On the procedure:
(4) Measurement of G Protein Activation Ability
The cells were collected by centrifuging the suspension of the differentiated HL-60 cells (1,000 rpm, 5 minutes, 4° C.). After that, the following operation was repeated three times to wash the cells: ice-cooled PBS was added to the cells; the mixture was suspended by inversion; and the mixture was centrifuged (1,000 rpm, 5 minutes, 4° C.). Then, the precipitated cells were suspended in a buffer for preparing a cell membrane fraction (20 mM Tris-HCl, 250 mM sucrose, 1.5 mM MgCl2, 3 mM benzamidine hydrochloride monohydrate, 1 μM leupeptin, 1 μM PMSF, 2 μg/ml trypsin inhibitor, pH 7.5) and a cell homogenate was prepared using nitrogen pressing-depressing type cell homogenizing apparatus (nitrogen pressure: 350 psi). After that, the resultant was ultracentrifuged (20,000 g, 4° C., 30 minutes) to remove the supernatant, and the precipitate was suspended in a membrane fraction buffer (20 mM Tris-HCl, 1 mM EDTA, 1 mM DTT, 77.5 mTIU/ml aprotinin, pH 7.5) and used as a cell membrane fraction. After dispensed, the cell membrane fraction was stored at −80° C. The activity of the G protein was quantified using the activity to hydrolyze GTP to GDP as an index. […] The mixture was centrifuged (15,000 rpm, 1 minute, 4° C.), and the radioactivity of the supernatant was measured.

For orientation: EC50 means the concentration at which the effect is half-maximal.

Where no end group is shown, it is not given here.

T1 sequence (P63097 whole entry): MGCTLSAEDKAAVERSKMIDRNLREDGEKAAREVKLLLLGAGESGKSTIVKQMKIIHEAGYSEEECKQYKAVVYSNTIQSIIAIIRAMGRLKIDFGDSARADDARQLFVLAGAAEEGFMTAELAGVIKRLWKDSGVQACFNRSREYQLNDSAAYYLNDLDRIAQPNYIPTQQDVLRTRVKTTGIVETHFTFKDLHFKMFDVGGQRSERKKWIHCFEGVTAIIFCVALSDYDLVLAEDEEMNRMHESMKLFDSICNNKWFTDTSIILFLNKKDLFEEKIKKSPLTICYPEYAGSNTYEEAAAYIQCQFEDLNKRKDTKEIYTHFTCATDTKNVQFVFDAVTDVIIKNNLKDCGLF

As for MLWNLLALHQIGQRTISTASHRH [No. 019], in assay [1], the “concentration of migration activity compared with that of β-hexosaminidase-secreting activity” value is recorded as “confirmed at the concentration lower than the concentration at which β-hexosaminidase-secreting activity was confirmed” and the “desensitization of migration activity with increasing concentration of the peptide” value is “subjected to desensitization completely”. The EC50 in assay [2] stood at 0.2 µM. Further, on bovine Gi1-G protein, the “activation of purified Gi1 protein” value is reported as “activated”. Also, the “activation of G protein” value in assay [3] is “activated”.
